These results are taken from ChEMBL document CHEMBL3046800, “Tricyclic cyanoguanidines: synthesis, site of action and insecticidal activity of a novel class of reversible acetylcholinesterase inhibitors” (2002).

Assay [1] concerns the target Acetylcholinesterase (Leptinotarsa decemlineata) (UniProt Q27677). Kind of assay: Reversible inhibition of Diabrotica undecimpunctata (Southern corn rootworm) acetylcholinesterase using acetylcholine iodine as substrate at 10 uM incubated for 30 min prior to substrate addition by size exclusion chromatrography method. On the technique in general: In gel filtration, larger molecules generally elute earlier.

For assay [2], the target named is Ace-orthologous acetylcholinesterase (Nephotettix cincticeps) (UniProt Q9NJH6). As to the kind of experiment: Reversible inhibition of Nephotettix cincticeps (green rice leafhopper) acetylcholinesterase using acetylcholine iodine as substrate at 2 uM measured up to 120 min by DTNB-based colorimetric analysis.
Ace-orthologous acetylcholinesterase (Nephotettix cincticeps), sequence (Q9NJH6 20-677 limits assumed): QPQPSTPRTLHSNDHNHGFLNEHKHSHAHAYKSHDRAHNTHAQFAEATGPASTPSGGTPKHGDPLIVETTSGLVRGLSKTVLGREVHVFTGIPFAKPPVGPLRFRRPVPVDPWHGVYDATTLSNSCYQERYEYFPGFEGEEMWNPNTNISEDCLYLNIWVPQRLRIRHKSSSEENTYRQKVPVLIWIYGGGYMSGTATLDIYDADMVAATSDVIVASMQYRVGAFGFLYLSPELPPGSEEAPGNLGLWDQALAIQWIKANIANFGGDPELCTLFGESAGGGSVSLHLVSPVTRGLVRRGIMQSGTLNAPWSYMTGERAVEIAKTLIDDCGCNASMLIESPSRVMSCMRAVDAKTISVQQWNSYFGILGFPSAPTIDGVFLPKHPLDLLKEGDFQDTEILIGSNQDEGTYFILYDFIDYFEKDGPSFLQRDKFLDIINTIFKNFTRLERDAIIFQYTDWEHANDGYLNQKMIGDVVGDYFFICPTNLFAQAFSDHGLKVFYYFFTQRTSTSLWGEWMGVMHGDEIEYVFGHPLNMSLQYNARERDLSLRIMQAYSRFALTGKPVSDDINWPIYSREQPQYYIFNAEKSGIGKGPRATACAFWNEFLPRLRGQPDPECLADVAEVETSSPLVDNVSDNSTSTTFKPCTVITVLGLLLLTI
Assay [3] has as its target Acetylcholinesterase (Leptinotarsa decemlineata) (UniProt Q27677). Kind of assay: Reversible inhibition of Diabrotica undecimpunctata (Southern corn rootworm) acetylcholinesterase using acetylcholine iodine as substrate at 2 uM measured up to 120 min by DTNB-based colorimetric analysis.
For the next assay, the system named is Peregrinus maidis. As to the kind of experiment: Insecticidal activity against Peregrinus maidis (corn hopper) infested compound-pretreated corn seed measured 6 days post-infestation. In kind it is functional.
For another assay, the system named is Nephotettix cincticeps. Kind of assay: Insecticidal activity against Nephotettix cincticeps (green rice leafhopper) infested in compound-pretreated rice seedling measured 6 days post-infestation. It counts as functional.
A further assay deals with Nilaparvata lugens. As to the kind of experiment: Insecticidal activity against Nilaparvata lugens (brown planthopper) infested in compound-pretreated rice seedling measured 6 days post-infestation. In kind it is functional.
Assay [4] addresses Acetylcholinesterase (Leptinotarsa decemlineata) (UniProt Q27677). As to the kind of experiment: Irreversible inhibition of Diabrotica undecimpunctata (Southern corn rootworm) acetylcholinesterase using acetylcholine iodine as substrate assessed as activity remaining at 1 uM incubated for 30 min prior to substrate addition by size exclusion chromatrography method.
Assay [5] has the same target. Kind of assay: Irreversible inhibition of Diabrotica undecimpunctata (Southern corn rootworm) acetylcholinesterase using acetylcholine iodine as substrate at 300 nM measured after 120 min by DTNB-based colorimetric analysis.
Assay [6] shares this target. As to the kind of experiment: Inhibition of Diabrotica undecimpunctata (Southern corn rootworm) acetylcholinesterase using acetylcholine iodine as substrate at 300 nM measured after 30 min by DTNB-based colorimetric analysis.

Calls of active or inactive are those of the source. No cut-off for these calls is given here. Bounds are passed on as bounds.

Acetylcholinesterase (Leptinotarsa decemlineata), sequence (Q27677 whole entry): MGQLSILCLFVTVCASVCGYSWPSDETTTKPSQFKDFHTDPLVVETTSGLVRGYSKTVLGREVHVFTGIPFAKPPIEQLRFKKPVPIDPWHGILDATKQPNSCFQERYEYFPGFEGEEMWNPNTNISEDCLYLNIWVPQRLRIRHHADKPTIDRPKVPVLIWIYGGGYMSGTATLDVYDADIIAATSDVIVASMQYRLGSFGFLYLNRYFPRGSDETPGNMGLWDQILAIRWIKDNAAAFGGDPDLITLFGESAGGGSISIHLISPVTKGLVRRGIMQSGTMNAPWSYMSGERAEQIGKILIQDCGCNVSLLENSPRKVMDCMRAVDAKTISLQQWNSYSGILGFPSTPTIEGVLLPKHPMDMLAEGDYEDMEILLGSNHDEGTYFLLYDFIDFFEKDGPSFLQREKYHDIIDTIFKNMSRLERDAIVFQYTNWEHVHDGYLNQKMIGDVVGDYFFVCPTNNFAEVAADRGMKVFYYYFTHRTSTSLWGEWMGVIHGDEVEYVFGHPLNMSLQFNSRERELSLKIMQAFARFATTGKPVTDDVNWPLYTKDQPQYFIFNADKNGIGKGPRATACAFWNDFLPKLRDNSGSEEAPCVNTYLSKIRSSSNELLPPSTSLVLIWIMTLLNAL

The inhibition is the drop in the measured response relative to a control, in per cent. As for `CC12CC(N/C(=N/C#N)N1)c1ccccc1O2` (stereo unspecified), in assay [1], the inhibition result is “Active”. In assay [2], the inhibition entry is “inactive”. Also, the inhibition in [3] stood at 50%. For the same compound, the results for the LC80 in the assay on Peregrinus maidis, with Nephotettix cincticeps and in the assay with Nilaparvata lugens were >250 ppm, >100 ppm and <10 ppm, respectively.
`CCOP(=O)(OCC)Oc1ccc([N+](=O)[O-])cc1` [PARAOXON]: the Activity in assay [4] is < 20%. For the same compound, the inhibition in assay [5] was determined as 100%; in assay [6], 50%. The results for the LC80 in the assay on Nephotettix cincticeps and with Nilaparvata lugens were >100 ppm and <10 ppm, respectively.
